{
  "source": "patent US6472404B1",
  "about": "(priority 2000, dated 2002)",
  "key": {"HIV-HXB2": {"system": "HIV-HXB2", "assay": "Antiviral assay: protection of HIV-infected MT4 cells from cell death (MTT)", "type": "cell-based", "conditions": "Human immunodeficiency virus 1, 120 h; MT4 cells infected with HIV-HXB2; 5 days; MTT viability; rounded to nearest whole number", "description": "Methods 20: 309-321]. The method is based on the ability of compounds to protect HIV-infected T lymphoblastoid cells (MT4 cells) from cell-death mediated by the infection. The endpoint of the assay was calculated as the concentration of compound at which the cell viability of the culture was preserved by 50% (‘50% inhibitory concentration’, IC50). The cell viability of a culture was determined by the uptake of soluble, yellow 3-[4,5-dimethylthiazol-2-yl]-2,5-diphenyltetrazolium bromide (MTT) and its reduction to a purple insoluble formazan salt. After solubilization, spectrophotometric methods were employed to measure the amount of formazan product.\nMT4 cells were prepared to be in logarithmic-phase growth and a total of 2×10^6 cells infected with either the wild type or site directed mutant clones of HIV-HXB2 at a multiplicity of approximately 0.0001 infectious units of virus per cell in a total volume of between 200-500 μl. The cells were incubated with virus for one hour at 37° C. then washed in 0.01 M phosphate buffered saline, pH 7.2, and resuspensed in culture medium for incubation in culture with serial dilutions of test compound. The culture medium used was RPMI 1640 without phenol red, supplemented with penicillin, streptomycin, L-glutamine and 10% fetal calf serum (GM10).\nTest compounds were prepared as 2 mM solutions in dimethyl sulphoxide (DMSO). Four replicate, serial 2-fold dilutions in GM10 were then prepared and 50 microliter amounts placed in 96-well plates over a final concentration range of […]. Fifty microliters GM10 and 3.75×10^4 infected cells were then added to each well. Control cultures containing no cells (blank), uninfected cells (100% viability; 4 replicates) and infected cells without compound (total virus-mediated cell death; 4 replicates) were also prepared. The cultures were then incubated at 37° C. in a humidified atmosphere of 5% CO2 in air for 5 days.\nA fresh solution of 5 mg/mL MTT was prepared in 0.01 M phosphate buffered saline, pH 7.2 and 20 μL added to each culture. The cultures were further incubated as before for 2 hours. They were then mixed by pipetting up and down, and 170 microliters of Triton X-100 in acidified isopropanol (10% v/v Triton X-100 in 1:250 mixture of concentrated HCl in isopropanol) were added and the cultures were mixed again by pipetting up and down. When the formazan deposit was fully solubilized by further mixing, the absorbance (OD) of the cultures was measured at 540 nm and 690 nm wavelength (690 nm readings were used as blanks for artefacts between wells). The percent protection for each treated culture was then calculated from the equation:\nOD drug-treated cultures)−(OD untreated virus control cultures) % Protection=100%\n(OD uninfected cultures)−(OD untreated virus control cultures)\nThe IC50 was then obtained from graph plots of percentage protection versus log10 drug concentration."}, "HIV-1 protease": {"target": "HIV-1 protease (Human immunodeficiency virus type 1 group M subtype B, UniProt P04585)", "assay": "HIV protease inhibition assay (quenched fluorogenic substrate, fluorescence energy transfer)", "protocol": "HIV protease inhibitory activity was assessed using an adaptation of the method of Matayoshi. et al. [Matayoshi E. D. et al (1990).\nCrude HIV-1 protease was prepared from E. coli pPTΔN. Cultures were grown at 30° in M9 medium supplemented with 0.2% casamino acids, 100 μg/ml ampicillin and 25 μg/ml thiamine until OD600=0.5-0.6, and the temperature was raised to 42° to induce expression of the protease. After 1.5 hours, the cells were harvested and the pellets stored at −70° until required.\nThe protease was prepared by lysis of the cells in a French pressure cell followed by precipitation of the enzyme with ammonium sulfate at 30% saturation.\nThe assay buffer comprised 0.1M sodium acetate pH 4.7, 8 mM EDTA, 0.2 M NaCl.\nTubes were incubated for 2 hours at 37° and the reaction was terminated by the addition of 500 μl of a 2:1 mixture of DMSO:50 mM Tricine pH 8.5. Fluorescence was measured in a fluorescence spectrophotometer, excitation λ=340 nm, emission λ=492 nm."}},
  "note": "pIC50: −log10 of the molar value.",
  "data": [
    {"smiles": "CC(C)(C)NC(=O)[C@@H]1C[C@@H]2CCCC[C@@H]2CN1C[C@@H](O)[C@H](Cc1ccccc1)NC(=O)[C@@H](Nc1nc(CO)cs1)C(C)(C)S(C)(=O)=O", "values": [
      {"measurement": "melting point", "result": 126, "unit": "°C"}
    ]},
    {"smiles": "CC(C)(C)NC(=O)[C@@H]1C[C@@H]2CCCC[C@@H]2CN1C[C@@H](O)[C@H](Cc1ccccc1)NC(=O)[C@@H](n1cc[nH]c1=O)C(C)(C)S(C)(=O)=O", "values": [
      {"measurement": "melting point", "result": "228 to 230", "unit": "°C"}
    ]},
    {"smiles": "CC(C)(C)NC(=O)[C@@H]1C[C@@H]2CCCC[C@@H]2CN1C[C@@H](O)[C@H](Cc1ccccc1)NC(=O)[C@@H](NC(=O)COc1cccc(F)c1)C(C)(C)S(C)(=O)=O", "values": [
      {"measurement": "melting point", "result": "197 to 199", "unit": "°C"}
    ]},
    {"smiles": "CC(C)(C)NC(=O)[C@@H]1C[C@@H]2CCCC[C@@H]2CN1C[C@@H](O)[C@H](Cc1ccccc1)NC(=O)[C@@H](NS(C)(=O)=O)C(C)(C)S(C)(=O)=O", "values": [
      {"measurement": "melting point", "result": "135 to 160", "unit": "°C"}
    ]},
    {"smiles": "CC(C)(C)NC(=O)[C@@H]1C[C@@H]2CCCC[C@@H]2CN1C[C@@H](O)[C@H](Cc1ccccc1)NC(=O)[C@@H](NC(=O)COc1cccnc1)C(C)(C)S(C)(=O)=O", "note": "[Example 3, N-tert-butyl-1,2,3,4,4a(S),5,6,7,8a(S)-decahydro-2-[2(R)-hydroxy-3(S)-[[3-(methanesulfonyl)-N-[2-(3-pyridyloxy)acetyl]-L-valyl]amino]-4-phenylbutyl]-3(S)-isoquinolinecarboxamide]", "values": [
      {"measurement": "pIC50", "setting": "HIV-HXB2", "result": 7.77},
      {"measurement": "pIC50", "setting": "HIV-1 protease", "result": 9.22}
    ]},
    {"smiles": "COC(=O)N[C@H](C(=O)N[C@@H](Cc1ccccc1)[C@H](O)CN1C[C@H]2CCCC[C@H]2C[C@H]1C(=O)NC(C)(C)C)C(C)(C)S(C)(=O)=O", "note": "[Example 4, N-tert-Butyl-1,2,3,4,4a(S),5,6,7,8,8a(S)-decahydro-2-[2(R)-hydroxy-3(S)-[[3-(methanesulfonyl)-N-(methoxycarbonyl)-L-valyl]amino]-4-phenylbutyl]-3(S)-isoquinolinecarboxamide]", "values": [
      {"measurement": "pIC50", "setting": "HIV-HXB2", "result": 7.85},
      {"measurement": "melting point", "result": "190 to 194", "unit": "°C"},
      {"measurement": "pIC50", "setting": "HIV-1 protease", "result": 8.55}
    ]},
    {"smiles": "CC(C)(C)NC(=O)[C@@H]1C[C@@H]2CCCC[C@@H]2CN1C[C@@H](O)[C@H](Cc1ccccc1)NC(=O)[C@@H](NC(=O)c1cccnc1)C(C)(C)S(C)(=O)=O", "note": "[Example 7, N-tert-butyl-1,2,3,4,4a(S),5,6,7,8,8a(S)-decahydro-2-[2(R)-hydroxy-3(S)-[[3-(methanesulfonyl)-N-[(3-pyridyl)carbonyl]-L-valyl]amino]-4-phenylbutyl]-3(S)-isoquinolinecarboxamide]", "values": [
      {"measurement": "pIC50", "setting": "HIV-HXB2", "result": 7.68},
      {"measurement": "pIC50", "setting": "HIV-1 protease", "result": 8.64}
    ]},
    {"smiles": "CC(C)(C)NC(=O)[C@@H]1C[C@@H]2CCCC[C@@H]2CN1C[C@@H](O)[C@H](Cc1ccccc1)NC(=O)[C@@H](NC(=O)c1ccc(Cl)nc1)C(C)(C)S(C)(=O)=O", "note": "[Example 16, N-tert-Butyl-2-[3-(S)-[[N-[(6-chloro-3-pyridyl)carbonyl]-3-(methanesulfonyl)-L-valyl]amino]-2(R)-hydroxy-4-phenylbutyl]-1,2,3,4,4a(S),5,6,7,8,8a(S)-decahydro-3(S)-isoquinolinecarboxamide]", "values": [
      {"measurement": "pIC50", "setting": "HIV-HXB2", "result": 7.92},
      {"measurement": "pIC50", "setting": "HIV-1 protease", "result": 9.00}
    ]},
    {"smiles": "CC(C)(C)NC(=O)[C@@H]1C[C@@H]2CCCC[C@@H]2CN1C[C@@H](O)[C@H](Cc1ccccc1)NC(=O)[C@@H](NC(=O)c1ccoc1)C(C)(C)S(C)(=O)=O", "note": "[Example 28, N-tert-Butyl-2-[3-(S)-[[N-(3-furoyl)-3-(methanesulfonyl)-L-valyl]amino]-2(R)-hydroxy-4-phenylbutyl]-1,2,3,4,4a(S),5,6,7,8,8a(S)-decahydro-3(S)-isoquinolinecarboxamide]", "values": [
      {"measurement": "pIC50", "setting": "HIV-HXB2", "result": 7.68},
      {"measurement": "pIC50", "setting": "HIV-1 protease", "result": 9.00}
    ]},
    {"smiles": "CC(C)(C)NC(=O)[C@@H]1C[C@@H]2CCCC[C@@H]2CN1C[C@@H](O)[C@H](Cc1ccccc1)NC(=O)[C@@H](NC(=O)c1cccc(F)c1)C(C)(C)S(C)(=O)=O", "note": "[Example 40, N-tert-Butyl-2-[3-(S)-[[N-(3-fluorobenzoyl)-3-(methanesulfonyl)-L-valyl]amino]-2(R)-hydroxy-4-phenylbutyl]-1,2,3,4,4a(S),5,6,7,8,8a(S)-decahydro-3(S)-isoquinolinecarboxamide]", "values": [
      {"measurement": "pIC50", "setting": "HIV-HXB2", "result": 7.72},
      {"measurement": "pIC50", "setting": "HIV-1 protease", "result": 8.85}
    ]},
    {"smiles": "CC(C)NCC(=O)N[C@H](C(=O)N[C@@H](Cc1ccccc1)[C@H](O)CN1C[C@H]2CCCC[C@H]2C[C@H]1C(=O)NC(C)(C)C)C(C)(C)S(C)(=O)=O", "note": "[Example 92, N-tert-Butyl-1,2,3,4,4a(S),5,6,7,8,8a(S)-decahydro-2-[2(R)-hydroxy-3(S)-[[N-[2-(isopropylamino)acetyl]-3-(methanesulfonyl)-L-valyl]amino]-4-phenylbutyl]-3(S)-isoquinolinecarboxamide]", "values": [
      {"measurement": "pIC50", "setting": "HIV-HXB2", "result": 7.48},
      {"measurement": "pIC50", "setting": "HIV-1 protease", "result": 8.40}
    ]},
    {"smiles": "CC(C)(C)NC(=O)[C@@H]1C[C@@H]2CCCC[C@@H]2CN1C[C@@H](O)[C@H](Cc1ccccc1)NC(=O)[C@@H](NC(=O)CNc1ccccc1)C(C)(C)S(C)(=O)=O", "note": "[Example 93, N-tert-Butyl-1,2,3,4,4a(S),5,6,7,8,8a(S)-decahydro-2-[2(R)-hydroxy-3(S)-[3-(methanesulfonyl)-N-(N-phenylglycyl)-L-valyl]amino]-4-phenylbutyl-3(S)-isoquinolinecarboxamide]", "values": [
      {"measurement": "pIC50", "setting": "HIV-HXB2", "result": 8.10},
      {"measurement": "pIC50", "setting": "HIV-1 protease", "result": 9.30}
    ]},
    {"smiles": "CC(C)(C)NC(=O)[C@@H]1C[C@@H]2CCCC[C@@H]2CN1C[C@@H](O)[C@H](Cc1ccccc1)NC(=O)[C@@H](NC(=O)N1CCOCC1)C(C)(C)S(C)(=O)=O", "note": "[Example 106, N-tert-Butyl-1,2,3,4,4a(S),5,6,7,8,8a(S)-decahydro-2-[2(R)-hydroxy-3(S)-[[3-(methanesulfonyl)-N-(morpholinocarbonyl)-L-valyl]amino]-4 phenylbutyl]-3(S)-isoquinolinecarboxamide]", "values": [
      {"measurement": "pIC50", "setting": "HIV-HXB2", "result": 7.22},
      {"measurement": "pIC50", "setting": "HIV-1 protease", "result": 7.97}
    ]},
    {"smiles": "CC(C)(C)NC(=O)[C@@H]1C[C@@H]2CCCC[C@@H]2CN1C[C@@H](O)[C@H](Cc1ccccc1)NC(=O)[C@@H](NCc1ccccc1)C(C)(C)S(C)(=O)=O", "note": "[Example 112, 2-[3(S)-[[N-Benzyl-3-(methanesulfonyl)-L-valyl]amino]-2(R)-hydroxy-4-phenylbutyl]-N-tert-butyl-1,2,3,4,4a(S),5,6,7,8,8a(S)-decahydro-3(S)-isoquinolinecarboxamide]", "values": [
      {"measurement": "pIC50", "setting": "HIV-HXB2", "result": 7.03},
      {"measurement": "pIC50", "setting": "HIV-1 protease", "result": 8.12}
    ]},
    {"smiles": "Cc1csc(N[C@H](C(=O)N[C@@H](Cc2ccccc2)[C@H](O)CN2C[C@H]3CCCC[C@H]3C[C@H]2C(=O)NC(C)(C)C)C(C)(C)S(C)(=O)=O)n1", "note": "[Example 138, N-tert-Butyl-1,2,3,4,4a(S),5,6,7,8,8a(S)-decahydro-2-[2(R)-hydroxy-3(S)-[[3-(methanesulfonyl)-N-(4-methyl-2-thiazolyl)-L-valyl]amino]-4-phenylbutyl]-3(S)-isoquinolinecarboxamide]", "values": [
      {"measurement": "pIC50", "setting": "HIV-HXB2", "result": 7.19},
      {"measurement": "pIC50", "setting": "HIV-1 protease", "result": 8.11}
    ]},
    {"smiles": "CC(C)(C)NC(=O)[C@@H]1C[C@@H]2CCCC[C@@H]2CN1C[C@@H](O)[C@H](Cc1ccccc1)NC(=O)[C@@H](NC(=O)COc1ccccn1)C(C)(C)S(C)(=O)=O", "note": "[Example 152]", "values": [
      {"measurement": "pIC50", "setting": "HIV-HXB2", "result": 7.77},
      {"measurement": "pIC50", "setting": "HIV-1 protease", "result": 8.92}
    ]},
    {"smiles": "CC(C)(C)NC(=O)[C@@H]1C[C@@H]2CCCC[C@@H]2CN1C[C@@H](O)[C@H](Cc1ccccc1)NC(=O)[C@@H](NC(=O)COc1cccnn1)C(C)(C)S(C)(=O)=O", "note": "[Example 154]", "values": [
      {"measurement": "pIC50", "setting": "HIV-HXB2", "result": 7.80},
      {"measurement": "pIC50", "setting": "HIV-1 protease", "result": 9.30}
    ]},
    {"smiles": "CC(C)(C)NC(=O)[C@@H]1C[C@@H]2CCCC[C@@H]2CN1C[C@@H](O)[C@H](Cc1ccccc1)NC(=O)[C@@H](NC(=O)NCc1ccccc1)C(C)(C)S(C)(=O)=O", "note": "[Example 168, 2-[3(S)-[[N-(Benzylcarbamoyl)-3-(methanesulfonyl)-L-valyl]amino]-2(R)-hydroxy-4-phenylbutyl]-N-tert-butyl-1,2,3,4,4a(S),5,6,7,8,8a(S)-decahydro-3(S)-isoquinolinecarboxamide]", "values": [
      {"measurement": "pIC50", "setting": "HIV-HXB2", "result": 7.80},
      {"measurement": "pIC50", "setting": "HIV-1 protease", "result": 9.30}
    ]},
    {"smiles": "CN(Cc1cccnc1)C(=O)N[C@H](C(=O)N[C@@H](Cc1ccccc1)[C@H](O)CN1C[C@H]2CCCC[C@H]2C[C@H]1C(=O)NC(C)(C)C)C(C)(C)S(C)(=O)=O", "note": "[Example 170, N-tert-Butyl-1,2,3,4,4a(S),5,6,7,8,8a(S)-decahydro-2-[2(R)-hydroxy-3(S)-[[3-(methanesulfonyl)-N-[N-methyl-N-[(3-pyridyl)methyl]carbamoyl]-L-valyl]amino]-4-phenylbutyl]-3(S)-isoquinolinecarboxamide]", "values": [
      {"measurement": "pIC50", "setting": "HIV-HXB2", "result": 7.89},
      {"measurement": "pIC50", "setting": "HIV-1 protease", "result": 9.00}
    ]}
  ]
}
